Data on one compound can be found in BindingDB's records for patent US10961236 (Astrazeneca, 2021).

pIC50: −log10 of the molar value.

The target of this assay is T1, Phosphatidylinositol 4,5-bisphosphate 3-kinase catalytic subunit gamma isoform [144-1102] (Homo sapiens, UniProt P48736).
T1 construct: 144-1102
Briefly: Enzymatic Activity Assay. How it is done: Routinely, inhibitors were pre-incubated with 3 μl of enzyme for 15 min prior to the addition of 2 μl substrate mixture for a further 60 min enzyme reaction. The phosphorylation was stopped with the addition of 3 μl ADP-Glo reagent (stop solution) followed by a 40 min incubation. Prior to detection 6 μl of ADP-Glo Kinase Detection Reagent was added and the plates were read in a micro plate reader using a Luminescence filter. All additions were followed by a short centrifugation step.

T1 sequence (P48736 144-1102): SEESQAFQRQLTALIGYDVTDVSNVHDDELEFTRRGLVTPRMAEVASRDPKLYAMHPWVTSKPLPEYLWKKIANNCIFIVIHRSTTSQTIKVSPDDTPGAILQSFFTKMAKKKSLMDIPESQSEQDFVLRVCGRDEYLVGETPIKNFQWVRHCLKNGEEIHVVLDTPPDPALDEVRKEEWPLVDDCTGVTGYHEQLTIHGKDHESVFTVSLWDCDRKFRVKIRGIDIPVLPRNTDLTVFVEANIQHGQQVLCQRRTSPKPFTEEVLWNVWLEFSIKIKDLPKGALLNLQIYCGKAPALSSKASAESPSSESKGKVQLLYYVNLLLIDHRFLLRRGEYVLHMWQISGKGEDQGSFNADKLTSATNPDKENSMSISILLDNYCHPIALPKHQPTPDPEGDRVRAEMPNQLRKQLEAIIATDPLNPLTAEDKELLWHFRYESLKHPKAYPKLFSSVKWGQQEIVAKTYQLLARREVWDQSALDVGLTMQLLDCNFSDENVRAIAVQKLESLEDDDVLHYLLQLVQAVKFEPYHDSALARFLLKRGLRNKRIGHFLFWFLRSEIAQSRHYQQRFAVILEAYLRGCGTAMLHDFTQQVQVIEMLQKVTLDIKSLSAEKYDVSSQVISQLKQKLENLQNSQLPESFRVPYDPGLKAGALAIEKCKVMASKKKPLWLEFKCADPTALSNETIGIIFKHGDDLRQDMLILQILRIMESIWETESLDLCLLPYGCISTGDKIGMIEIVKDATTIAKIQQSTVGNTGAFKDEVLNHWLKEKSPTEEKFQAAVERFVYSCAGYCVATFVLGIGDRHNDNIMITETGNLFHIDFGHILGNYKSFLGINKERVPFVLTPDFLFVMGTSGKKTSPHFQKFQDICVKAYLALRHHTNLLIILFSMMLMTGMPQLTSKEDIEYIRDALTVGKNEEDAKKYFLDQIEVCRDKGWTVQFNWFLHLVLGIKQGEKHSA

In turn, `CC[C@H](C)N1Cc2cc(-c3sc(Nc4cccc(N5CCCOC5=O)n4)nc3C)cc(S(=O)(=O)NC)c2C1=O` [US10961236, Example 61] showed a pIC50 of 9.00.

Usually pIC50 stands for −log10 of the IC50, conventionally taken in molar units.
